Source: ChEMBL document CHEMBL1201862, “PubChem BioAssay data set” (2004)
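Dose response: 5 concentrations. Exposure: 48 h. Format: 96-well plates. Endpoint: linear interpolation; highest concentration if not reached. GI50 = concentration required for 50% inhibition of growth.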 The source made the active and inactive calls. No stated cut-off is given here; in the data, active = GI50 up to about 1.1 µM and inactive = higher. *1 amine or outer side, *2 acyl side, *3 side chain or, on linkers, in order; H or OH if unused. Where a SMILES comes first, the peptide text is derived from it. The star is where a group is joined. γGlu = O=C(O)[CH](CCC(=O)[*:2])N[*:1]; NHOH = ON*

Experiments:
Assay in all cases: DTP human tumour cell line panel, 48 h
[1] = test system: HT-29
[2] = test system: KM12
[3] = test system: LOX IMVI
[4] = test system: MOLT-4
[5] = test system: Malme-3M
[6] = test system: NCI-H226
[7] = test system: NCI-H460
[8] = test system: NCI-H522
[9] = test system: OVCAR-3
[10] = test system: SF-539
[11] = test system: SNB-75
[12] = test system: SR
[13] = test system: T47D
[14] = test system: UACC-62
[15] = test system: UO-31
[16] = test system: 786-0
[17] = test system: CAKI-1
[18] = test system: HOP-92
[19] = test system: IGROV-1
[20] = test system: PC-3

Measured: GI50

COC(=O)C1=C(O)C(C(=O)OC)[C@@]2(O)[C@@H](C(=O)OC)[C@H](C)[C@@H](C)[C@@H]1[C@@H]2C(=O)OC (stereo partly drawn)
inactive: [1] 55.7 µM | [2] 34.8 µM | [3] 51.9 µM | [4] > 100 µM | [5] 83.2 µM | [6] 55.8 µM | [7] 44.9 µM | [8] 26.9 µM | [9] 27 µM | [10] 35.6 µM | [11] 57.7 µM | [12] 28.2 µM | [13] > 100 µM | [14] 55.5 µM | [15] 38.5 µM

Nc1n[nH]c2nc3ccc(C(F)(F)F)cc3nc12
inactive: [16] 21 µM | [17] 31.5 µM | [18] 25.1 µM | [1] 29.8 µM | [19] 21.9 µM | [2] 57.1 µM | [3] 18.6 µM | [4] 43.5 µM | [5] 71.6 µM | [7] 20.5 µM | [8] 20.3 µM | [20] 25.9 µM | [11] 13.6 µM | [12] 49.4 µM | [14] 21 µM | [15] 17.6 µM

C=CC[C@@]1(C(=O)OC)[C@H](Sc2ccccc2)C1(C)C
inactive: [16] 33.4 µM | [17] 74.8 µM | [18] 13.8 µM | [1] 24.9 µM | [19] 26.9 µM | [2] 35.1 µM | [4] 14.4 µM | [5] 29.4 µM | [6] 35.5 µM | [7] 66.5 µM | [8] 30.5 µM | [9] 44.3 µM | [20] 47.3 µM | [10] 35.3 µM | [11] 21.8 µM | [13] > 100 µM | [14] 45.5 µM | [15] 83 µM

CCOP1(=O)CC(C)=C(Cl)C(OC)C1 (stereo not drawn)
inactive: [16] > 100 µM | [17] > 100 µM | [18] > 100 µM | [1] > 100 µM | [19] > 100 µM | [2] > 100 µM | [3] 61.7 µM | [4] > 100 µM | [5] > 100 µM | [6] > 100 µM | [7] > 100 µM | [8] 34 µM | [9] > 100 µM | [20] > 100 µM | [10] > 100 µM | [11] > 100 µM | [12] > 100 µM | [14] > 100 µM

NC(CCC(=O)NC(CCC(=O)NO)C(=O)NCC(=O)O)C(=O)O (stereo not drawn) (γGlu-Glu(NHOH)-Gly-OH; configuration not given here)
inactive: [16] > 100 µM | [17] > 100 µM | [18] > 100 µM | [1] > 100 µM | [19] > 100 µM | [2] > 100 µM | [3] > 100 µM | [4] > 100 µM | [6] > 100 µM | [7] > 100 µM | [8] > 100 µM | [9] > 100 µM | [20] > 100 µM | [10] > 100 µM | [11] > 100 µM | [13] > 100 µM | [14] > 100 µM | [15] > 100 µM

COCN1C(=O)[C@@H]2CCCN2C(=O)c2ccc(N)cc21
inactive: [16] > 100 µM | [17] > 100 µM | [18] > 100 µM | [1] > 100 µM | [19] > 100 µM | [2] > 100 µM | [3] > 100 µM | [4] > 100 µM | [6] > 100 µM | [7] > 100 µM | [8] > 100 µM | [9] > 100 µM | [20] > 100 µM | [10] > 100 µM | [11] > 100 µM | [12] > 100 µM | [14] > 100 µM | [15] > 100 µM

CCN(CC)CCNc1ccc2nnn3c4ccc(OCCN(CC)CC)cc4c(=O)c1c23
inactive: [16] 21.6 µM | [17] 66.1 µM | [18] 51.9 µM | [1] 18.5 µM | [2] 32.3 µM | [4] 6.73 µM | [7] 33.7 µM | [8] 18.8 µM | [10] 96.8 µM | [12] 19.4 µM | [13] > 100 µM | [14] > 100 µM | [15] 89.9 µM

CC(C)(C)c1cc(C(CO)OCCOCCO)cc(C(C)(C)C)c1O (stereo not drawn)
inactive: [16] > 100 µM | [17] > 100 µM | [18] > 100 µM | [1] > 100 µM | [19] > 100 µM | [2] > 100 µM | [3] > 100 µM | [5] > 100 µM | [6] > 100 µM | [8] > 100 µM | [9] > 100 µM | [20] > 100 µM | [10] > 100 µM | [11] > 100 µM | [13] > 100 µM | [14] > 100 µM | [15] > 100 µM

[O-][n+]1c(CN2CCCCC2)nc2cccc3c2c1-c1ccccc1-3
inactive: [16] 16.7 µM | [17] 25.4 µM | [18] 25.1 µM | [1] 17.3 µM | [19] 23.5 µM | [2] 26.4 µM | [3] 19.4 µM | [4] > 100 µM | [5] 14.3 µM | [6] 16.9 µM | [7] 18 µM | [9] 21.6 µM | [20] 31.3 µM | [10] 23.9 µM | [11] 24.6 µM | [12] 43.5 µM | [14] 16.4 µM | [15] 11.9 µM

COc1cc2c3c(c1OC)Oc1ccc(cc1)CC1c4c(cc(OC)c(OC)c4Oc4ccc(cc4)CC3N(C)CC2)CCN1C (stereo not drawn)
inactive: [16] 19.8 µM | [17] 90.6 µM | [18] 32.6 µM | [1] 15.1 µM | [19] 13.4 µM | [2] 34.4 µM | [3] 17.7 µM | [4] 21.8 µM | [5] 20.3 µM | [6] 15.6 µM | [7] 18.7 µM | [8] 12.7 µM | [9] 18.6 µM | [10] 14.5 µM | [11] 21.8 µM | [12] 2.88 µM | [14] 19 µM | [15] 15 µM

O=C1C(=O)N(c2ccc(Cl)c(Cl)c2)C(=O)C(=O)C1c1nc2ccccc2o1
inactive: [16] > 100 µM | [17] > 100 µM | [18] > 100 µM | [1] 41.6 µM | [19] > 100 µM | [2] > 100 µM | [3] > 100 µM | [4] 31.7 µM | [5] 87.9 µM | [6] > 100 µM | [7] > 100 µM | [8] 57.4 µM | [9] > 100 µM | [10] > 100 µM | [11] > 100 µM | [12] 30 µM | [14] 74.8 µM | [15] > 100 µM

C/C(CCN(C)C)=N\OC(=O)c1ccccc1
inactive: [16] > 100 µM | [17] > 100 µM | [18] > 100 µM | [1] > 100 µM | [19] > 100 µM | [2] > 100 µM | [3] > 100 µM | [4] > 100 µM | [5] > 100 µM | [6] > 100 µM | [7] > 100 µM | [8] > 100 µM | [9] > 100 µM | [10] > 100 µM | [11] 50.8 µM | [12] > 100 µM | [14] > 100 µM | [15] > 100 µM

C[C@@H]1OC(=O)C[C@H]2CC(=O)N(CCC3CN(S(=O)(=O)C(F)(F)F)c4ccccc43)C[C@@H]21 (stereo partly drawn)
inactive: [16] > 100 µM | [17] > 100 µM | [18] > 100 µM | [1] > 100 µM | [19] 69.7 µM | [2] > 100 µM | [4] > 100 µM | [5] 82.4 µM | [7] > 100 µM | [8] > 100 µM | [9] > 100 µM | [20] > 100 µM | [12] > 100 µM | [14] > 100 µM | [15] > 100 µM

CC1(C)O[C@H]2OC(CO[Si](C)(C)C(C)(C)C)C(N=[N+]=[N-])[C@H]2O1 (stereo partly drawn)
inactive: [16] 18.2 µM | [17] 23.8 µM | [18] 23.9 µM | [1] 12.5 µM | [19] 3.04 µM | [2] 18.7 µM | [3] 21 µM | [4] 17 µM | [5] 17.1 µM | [6] 20 µM | [7] 26.2 µM | [9] 22.7 µM | [20] 20.3 µM | [10] 20 µM | [11] 28.4 µM | [12] 12.4 µM | [14] 19.1 µM | [15] 17.2 µM

c1ccc2c(c1)NC(C1OC3CCCN3C1C1Nc3ccccc3S1)S2 (stereo not drawn)
inactive: [16] > 100 µM | [17] > 100 µM | [18] > 100 µM | [1] 44.4 µM | [19] > 100 µM | [2] 46.5 µM | [4] 29.9 µM | [5] > 100 µM | [7] 41.2 µM | [8] 28.2 µM | [9] 46.5 µM | [20] 44.1 µM | [10] > 100 µM | [11] 69.7 µM | [12] 22.3 µM | [14] 79.8 µM | [15] 55.1 µM

COc1cc2c(cc1OC)[C@@H](C(O)c1ccccc1)NCC2 (stereo partly drawn)
inactive: [16] > 100 µM | [17] > 100 µM | [18] > 100 µM | [1] > 100 µM | [19] > 100 µM | [2] > 100 µM | [3] > 100 µM | [4] > 100 µM | [5] > 100 µM | [6] > 100 µM | [7] > 100 µM | [8] > 100 µM | [9] > 100 µM | [10] > 100 µM | [11] 54.6 µM | [12] > 100 µM | [14] > 100 µM | [15] > 100 µM
